What all share (type): cell-based
Assay [1] deals with NCI-H460 (non-small cell lung) cancer cell line. Briefly: In vitro cytotoxicity (GI50), Sulforhodamine B staining, NCI-H460. Particulars: Homo sapiens, read-out: Drug concentration that produces 50% cell growth inhibition (GI50), H460 (NSCLC). How it is done:
(§1) In this example, the in vitro cytotoxicity, as measured by GI50 (50% of growth inhibition) values, was determined for representative lipophilic di(anticancer drug) compounds of the invention. The GI50 values of sebacate bis(7-ethylcamptothecin-10-yl)ester, sebacate bis(camptothecin-20-yl)ester, sebacate bis(paclitaxel-2′-yl)ester, and sebacate bis(docetaxel-2′-yl)ester, were measured in the following cancer cell lines: NCI-H460 (non-small cell lung), MDA-MB-231 (breast), […] (colon), and SKOV-3 (ovarian).
(§2) The study was performed using a solution of the lipophilic di(anticancer drug) compounds in DMSO (1 mM) diluted in the corresponding cell media. The cells were in contact with varying concentrations of the drug for a period of 48 hours. At the end of 48 hours, staining with Sulforhodamine B was performed to determine the number of viable cells and calculate the degree of cellular growth inhibition as compared to a control group.
(In SRB staining, fixed cells bind dye roughly in proportion to their protein.)

Assay [2] relates to MDA-MB-231 (breast) cancer cell line. Briefly: In vitro cytotoxicity (GI50), Sulforhodamine B staining, MDA-MB-231. The note with it: Homo sapiens, read-out: Drug concentration that produces 50% cell growth inhibition (GI50), MDA-MB-231 (BREAST). The method, then: as §1, §2
Assay [3] deals with SKOV-3 (ovarian) cancer cell line. Briefly: In vitro cytotoxicity (GI50), Sulforhodamine B staining, SKOV-3. Particulars: Homo sapiens, read-out: Drug concentration that produces 50% cell growth inhibition (GI50), SKOV-3 (OVARIAN). How it is done:
as §1, §2

In assay [4] the test system is HCT-116 (colon) cancer cell line. Briefly: In vitro cytotoxicity (GI50), Sulforhodamine B staining, HCT-116. Particulars: Homo sapiens, read-out: Drug concentration that produces 50% cell growth inhibition (GI50), HCT-116 (COLON). The method, then: as §1, §2
Where [5] appears, read: NCI-H460, H460 (NSCLC) cells, 48 hours contact, Sulforhodamine B.
Where [6] appears, read: MDA-MB-231 (breast) cells, 48 hours contact, Sulforhodamine B.
[7] abbreviates: SK-OV-3, SKOV-3 (ovarian) cells, 48 hours contact, Sulforhodamine B.
Setting [8] is: HCT-116 (colon) cells, 48 hours contact, Sulforhodamine B.

Each structure is given as a SMILES string. Where two headings read alike, the source gives them in different places.

Regarding `CCc1c2c(nc3ccc(OC(=O)CCCCCCCCC(=O)Oc4ccc5nc6c(c(CC)c5c4)Cn4c-6cc5c(c4=O)COC(=O)[C@]5(O)CC)cc13)-c1cc3c(c(=O)n1C2)COC(=O)[C@]3(O)CC` [sebacate bis(7-ethylcamptothecin-10-yl), decanedioic acid bis[(4S)-4,11-diethyl-3,4,12,14-tetrahydro-4-hydroxy-3,14-dioxo-1H-pyrano[3′,4′:6,7]indolizino[1,2-b]quinolin-9-yl]ester], the GI50 in assay [1] (NCI-H460, 48 h) turned out to be 3.03 nM; in assay [2] (MDA-MB-231, 48 h), 303 nM; in assay [3] (SK-OV-3, 48 h), 8.53 nM; in assay [4] (HCT-116, 48 h) it was 4.58 nM.
`CC[C@@]1(OC(=O)CCCCCCCCC(=O)O[C@]2(CC)C(=O)OCc3c2cc2n(c3=O)Cc3cc4ccccc4nc3-2)C(=O)OCc2c1cc1n(c2=O)Cc2cc3ccccc3nc2-1` [sebacate bis(camptothecin-20-yl)ester, decanedioic acid bis[(4S)-4-ethyl-3,4,12,14-tetrahydro-3,14-dioxo-1H-pyrano[3′,4′:6,7]indolizino[1,2-b]quinolin-4-yl]ester]: the GI50 in assay [1] (setting [5]) amounted to 3150 nM; in assay [2] (setting [6]), 9250 nM; in assay [3] (setting [7]), 8540 nM; in assay [4] (setting [8]), 849 nM.
In the same order, the values of `CC(=O)O[C@@]12CO[C@@H]1C[C@H](O)[C@@]1(C)C(=O)[C@H](O)C3=C(C)[C@@H](OC(=O)[C@H](OC(=O)CCCCCCCCC(=O)O[C@@H](C(=O)O[C@H]4C[C@@]5(O)[C@@H](OC(=O)c6ccccc6)[C@@H]6[C@]7(OC(C)=O)CO[C@@H]7C[C@H](O)[C@@]6(C)C(=O)[C@H](O)C(=C4C)C5(C)C)[C@@H](NC(=O)OC(C)(C)C)c4ccccc4)[C@@H](NC(=O)OC(C)(C)C)c4ccccc4)C[C@@](O)([C@@H](OC(=O)c4ccccc4)[C@H]21)C3(C)C` [sebacate bis(docetaxel-2′-yl)ester, decanedioic acid bis[(1R,2S)-1-[[[(2aR,4S,4aS,6R,9S,11S,12S,12aR,12bS)-12b-(acetyloxy)-12-(benzoyloxy)-2a,3,4,4a,5,6,9,10,11,12,12a,12b-dodecahydro-4,6,11-trihydroxy-4a,8,13,13-tetramethyl-5-oxo-7,11-methano-1H-cyclodeca[3,4]benz[1,2-b]oxet-9-yl]oxy]carbonyl]-2-[[(1,1-dimethylethoxy)carbonyl]amino]-2-phenylethyl]ester] are 16.7 nM, 111 nM, 135 nM and 20.9 nM.
With `CC(=O)O[C@H]1C(=O)[C@@]2(C)[C@H]([C@H](OC(=O)c3ccccc3)[C@]3(O)C[C@H](OC(=O)[C@H](OC(=O)CCCCCCCCC(=O)O[C@@H](C(=O)O[C@H]4C[C@@]5(O)[C@@H](OC(=O)c6ccccc6)[C@@H]6[C@]7(OC(C)=O)CO[C@@H]7C[C@H](O)[C@@]6(C)C(=O)[C@H](OC(C)=O)C(=C4C)C5(C)C)[C@@H](NC(=O)c4ccccc4)c4ccccc4)[C@@H](NC(=O)c4ccccc4)c4ccccc4)C(C)=C1C3(C)C)[C@]1(OC(C)=O)CO[C@@H]1C[C@@H]2O` [sebacate bis(paclitaxel-2′-yl)ester, decanedioic acid bis[(1R,2S)-2-(benzoylamino)-1-[[[(2aR,4S,4aS,6R,9S,11S,12S,12aR,12bS)-6,12b-bis(acetyloxy)-12-(benzoyloxy)-2a,3,4,4a,5,6,9,10,11,12,12a, 12b-dodecahydro-4,11-dihydroxy-4a,8,13,13-tetramethyl-5-oxo-7,11-methano-1H-cyclodeca[3,4]benz[1,2-b]oxet-9-yl]oxy]carbonyl]-2-phenylethyl]ester], the GI50 is 83.2 nM in assay [1] (NCI-H460, 48 h); 84.3 nM in assay [2] (MDA-MB-231, 48 h); 40.2 nM in assay [3] (SK-OV-3, 48 h); 39.9 nM in assay [4] (HCT-116, 48 h).

These data come from patent US7786164B2, “Lipophilic di(anticancer drug) compounds, compositions, and related methods” (Sonus Pharmaceuticals, Inc., priority 2005, dated 2010).
